Test results taken from patent publication US8633245B2, “PAI-1 inhibitor” (Institute of Medicinal Molecular Design, Inc., priority 2008, dated 2014).

Tests used:
[1] = system: thrombus in AV shunt; assay: Test Example 5: anti-thrombotic activity (rat AV shunt model); type: in vivo; conditions: mean ± S.E., n=5, vehicle 72.7 ± 2.7
Procedure: AV shunt model using 7-week old male Crlj: CD (SD) rats were prepared, and anti thrombotic activities when the compounds according to the present invention were administered orally were examined.
Required amount of the test compounds were weighed and suspended by adding 0.5% CMC (carboxymethylcellulose)-Na solution little by little, and the solutions (10 mg/kg or 30 mg/kg solution) were prepared so that their final concentration became 2 mg/ml or 6 mg/ml using a graduated cylinder. 5 ml was prepared for 1 course.
To 7-week old Crlj: CD (SD) male rats, 5 ml/kg of vehicle (0.5% CMC-Na solution) or 5 ml/kg of the administering solution of the test compound (10 mg/kg or 30 mg/kg) were administered orally for 4 days. The administration on the 4th day was carried out about 1 hour before the following perfusion start.
On the connected part where the silk thread was through, parafilm was wrapped around to avoid blood leakage.
Rats were anesthetized with pentobarbital (50 mg/kg; intraperitoneally). Saline was filled in the above catheter, and each of the ends of the catheter was inserted in right carotid artery and left carotid artery, respectively, and blood was circulated. 30 minutes later, the catheter was pinched with forceps to stop blood flow, and tube parts where the silk thread was through were cut and removed. The silk thread was carefully removed from the tubes, remaining wet weight was weighed after removing the liquid phase with filter paper, and further subtraction of the weight of the silk thread, gave the thrombus weight.
For the thrombus weight in each group, an average value±standard error (S.E.) was calculated. For the significance test between the vehicle administered group and the compound according to the present invention administered group, Dunnett's multiple comparison was carried out (significance level 5%). For the test, the SAS System Release 8.2 (TS2M0) for Windows (Registered Trademark) (SAS Institute Inc.) and its cooperative system EXSAS Ver. 7.10 (Arm Systex Co. Ltd.) were employed.

[2] = target: T1, recombinant human PAI-1 (Homo sapiens, UniProt P05121); assay: Test Example 1: human PAI-1 inhibitory activity (tPA fluorogenic substrate, pH 7.5 Tris buffer); type: biochemical
T1 construct: purchased Molecular Innovations, Inc
T1 sequence (P05121 24-402): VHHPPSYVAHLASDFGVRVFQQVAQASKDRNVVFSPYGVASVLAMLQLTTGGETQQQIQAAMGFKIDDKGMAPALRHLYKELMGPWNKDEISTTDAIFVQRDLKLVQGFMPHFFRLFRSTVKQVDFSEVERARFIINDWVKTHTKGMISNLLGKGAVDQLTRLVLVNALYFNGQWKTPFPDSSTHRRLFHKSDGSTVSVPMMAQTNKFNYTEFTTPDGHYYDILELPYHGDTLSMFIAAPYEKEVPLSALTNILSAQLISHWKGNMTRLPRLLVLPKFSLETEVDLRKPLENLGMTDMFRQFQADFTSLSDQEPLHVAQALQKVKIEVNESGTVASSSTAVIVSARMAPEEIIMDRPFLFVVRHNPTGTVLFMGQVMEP
Procedure: 50 mM Tris, 150 mM NaCl, 10 μg/ml BSA, 0.01% Tween80 (SIGMA-ALDRICH Corporation)

[3] = target: T1, recombinant human PAI-1; assay: Test Example 2: human PAI-1 inhibitory activity (tPA fluorogenic substrate, pH 7.4 HEPES buffer); type: biochemical; conditions: for IC50: human PAI-1, calculated from the inhibition rates
Procedure: 0.1 M HEPES, 0.1 M NaCl. 1 mM EDTA. 0.1% Polyethylene glycol 8,000 (Hampton Research Corporation),
2 mM Dimethyldecylphoshine oxide [Apo-10] (Fluka Corporation)

[4] = target: T2, recombinant rat PAI-1 (Rattus norvegicus, UniProt P20961); assay: Test Example 3: rat PAI-1 inhibitory activity (as Test Example 2 with rat PAI-1); type: biochemical; conditions: rat PAI-1; for IC50: calculated from the inhibition rates
T2 construct: purchased Molecular Innovations, Inc
T2 sequence (P20961 24-402): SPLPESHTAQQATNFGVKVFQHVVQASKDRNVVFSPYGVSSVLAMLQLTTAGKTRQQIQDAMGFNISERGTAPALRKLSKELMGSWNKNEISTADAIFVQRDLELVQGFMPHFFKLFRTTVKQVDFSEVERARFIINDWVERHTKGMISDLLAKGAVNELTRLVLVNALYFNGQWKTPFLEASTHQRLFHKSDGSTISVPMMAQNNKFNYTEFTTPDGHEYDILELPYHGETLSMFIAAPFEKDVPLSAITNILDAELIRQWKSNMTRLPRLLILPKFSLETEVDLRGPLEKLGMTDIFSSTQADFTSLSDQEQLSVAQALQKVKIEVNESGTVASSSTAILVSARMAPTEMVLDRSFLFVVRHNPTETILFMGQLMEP
Procedure: To this solution, 6 μl of 80 nM recombinant human PAI-1 (Molecular Innovations, Inc.) solution prepared with Tris buffer was added, and the plate was incubated for 5 minutes at room temperature. Furthermore, 30 μl of 800 IU/ml two-chain tPA (Activity Standard; American diagnostica, inc.) prepared with Tris buffer was added, and the mixed solution was incubated for 15 minutes at room temperature. Then, 30 μl of 400 μM fluorogenic substrate (Pyr-Gly-Arg-MCA; Peptide Institute, Inc.) for tPA prepared with Tris buffer was added and reacted for 30 minutes at room temperature.

[5] = target: T1, recombinant human PAI-1; assay: Test Example 4: human PAI-1 inhibitory activity (amount of PAI-1 bound to plate-coated tPA, ELISA); type: binding; conditions: read-out: Inhibition Rate of PAI-1 Activity (%)
Procedure: 100 μl of tPA solution, where one-chain recombinant tPA (hereinafter referred to as tPA; American diagnostica, inc.) had been diluted with Buffer A to achieve a concentration of 10 μg/ml, was added to each well of a 96-well plate (Nunc Maxisorp), and the plate was incubated for one night at 4° C. to be coated with tPA. Then, after suction of tPA solution from the 96-well plate, the plate was rinsed successively with Buffer A and Buffer B.
To Buffer B, solutions of the compound according to the present invention dissolved with DMSO (final DMSO concentration: 0.2%) and recombinant human PAI-1 (Molecular Innovations, Inc.) were added. The mixtures were blended so that the final concentrations would be 0.1 to 3.0 μM and 50 ng/ml respectively, and were incubated for 15 minutes on ice. These mixed solutions were added to the rinsed 96-well plate at 100 μl/well, and incubated for 60 minutes at room temperature. To prepare a calibration curve, PAI-1 solutions without the compound according to the present invention (solutions where the final concentrations being 100, 50, 25, 12.5, 6.25, 3.13, or 1.56 ng/ml PAI-1) were added at 100 μl/well, and the plate was incubated for 60 minutes at room temperature, as standard.
After incubation, the reaction mixture was removed by suction, and each well was rinsed with Wash Buffer. Next, anti-human PAI-1 monoclonal antibody (PROGEN Inc.) diluted with Buffer C to be 3.0 μg/ml was added to the 96-well plate at 100 μl/well, and the plate was incubated for 1 hour at room temperature. After rinsing each well with Wash Buffer, alkaline phosphatase-labeled goat anti-mouse IgG (H+L) (Jackson ImmunoResearch, Inc.) diluted with Buffer D to be 0.12 μg/ml was added at 100 μl/well, and the plate was incubated for 1 hour at room temperature. After rinsing each well with Wash Buffer, 1.0 mg/ml p-Nitrophenyl Phosphate (SIGMA) was added to the 96-well plate at 100 μl/well to start the reaction. After 30 to 60 minutes, 25 μl of 0.5 N NaOH was added to stop the reaction, and the absorbance was measured at 405 nm using a multiplate reader (GENios; TECAN G.M.B.H.). Based on the calibration curve prepared from the standard wells, amounts of PAI-1 bound to tPA in the wells that had been treated with the compound according to the present invention were calculated, and the PAI-1 inhibition rates by the compounds according to the present invention were obtained by the following equation. [PAI-1 Inhibition Rate (%)]=[1−(amount of PAI-1 bound to tPA on the well by treatment with the compound according to the present invention)/(amount of PAI-1 bound to tPA on the well by treatment with PAI-1 solution not including the compound according to the present invention (solution having the final concentration of 50 ng/ml PAI-1)]×100

[6] = Compound Concentration 5 μM, Tris buffer
[7] = Compound Concentration 10 μM, Tris buffer
[8] = read-out: Inhibition Rate of PAI-1 Activity (%)
[9] = Compound Concentration 0.1 μM, HEPES buffer
[10] = Compound Concentration 0.3 μM, HEPES buffer
[11] = Compound Concentration 1 μM, HEPES buffer
[12] = Compound Concentration 3 μM, HEPES buffer

| Inhibition Rate of PAI-1 Activity (%) [2, 6] [%] | Inhibition Rate of PAI-1 Activity (%) [2, 7] [%] | Inhibition Rate of PAI-1 Activity (%) [3, 9] [%] | Inhibition Rate of PAI-1 Activity (%) [3, 10] [%] | Inhibition Rate of PAI-1 Activity (%) [3, 11] [%] | Inhibition Rate of PAI-1 Activity (%) [3, 12] [%] | Inhibition Rate of PAI-1 Activity (%) ([4]; compound concentration 0.3 μM) | Inhibition Rate of PAI-1 Activity (%) ([4]; compound concentration 1 μM) | Inhibition Rate of PAI-1 Activity (%) ([4]; compound concentration 3 μM) | Inhibition Rate of PAI-1 Activity (%) ([4]; compound concentration 10 μM) | Structure (SMILES) | IC50 [3] [nM] | IC50 [4] [nM] | other results |
| --- | --- | --- | --- | --- | --- | --- | --- | --- | --- | --- | --- | --- | --- |
| – | – | – | – | – | – | – | – | – | – | CC(C)(C)c1ccc(COc2ccc(-c3ccc(OC(F)(F)F)cc3)cc2CCC(=O)O)cc1 [Compound 5] | – | – | Thrombus Weight ([1]; 10 mg/kg/day orally for 4 days): 57.5 ± 5.0 mg |
| 37 | 67 | – | – | – | – | – | – | – | – | CN(C(=O)C(=O)O)c1cc(-c2ccc(OC(F)(F)F)cc2)ccc1OCc1ccc(C(C)(C)C)cc1 [Compound 17] | – | – | Inhibition Rate of PAI-1 Activity (%) ([2]; Compound Concentration 25 μM, Tris buffer): 97%; Thrombus Weight ([1]; 30 mg/kg/day orally for 4 days): 60.4 ± 3.8 mg |
| – | – | – | – | – | – | – | – | – | – | CC(C)c1ccc(Oc2ccc(CCC(=O)O)c(Oc3ccc(C(C)C)cc3)c2)cc1 [Compound 73] | 1270 | 2100 | inhibition at 25 µM [2, 8]: > 99% |
| – | – | – | – | – | – | – | – | – | – | O=C(O)CCc1cc(-c2ccc(OC(F)(F)F)cc2)ccc1OCCCCc1ccccc1 [Compound 102] | 1320 | 2750 | inhibition at 1 µM [5]: 0% |
| – | – | – | – | – | – | – | – | – | – | CC(C)(C)c1ccc(COc2ccc(-c3ccc(OC(F)(F)F)cc3)cc2OCC(=O)O)cc1 [Compound 105] | 1070 | 2190 | inhibition at 25 µM [2, 8]: > 99% |
| – | – | – | – | – | – | – | – | – | – | CC(C)(C)c1ccc(CN(C(=O)C(=O)O)c2ccc(-c3ccc(OC(F)(F)F)cc3)cc2)cc1 [Compound 129] | – | – | Thrombus Weight ([1]; 10 mg/kg/day orally for 4 days): 56.7 ± 3.8 mg |
| – | – | – | – | – | – | – | – | – | – | CCN(CC)c1ccc(N(Cc2ccc(C(C)(C)C)cc2)C(=O)C(=O)O)c(-c2ccc(OC(F)(F)F)cc2)c1 [Compound 208] | – | – | inhibition at 1 µM [5]: 13% |
| 87 | 96 | 9 | 16 | 43 | 96 | 4 | 17 | 78 | 87 | CC(C)Oc1ccc(N(Cc2ccc(C(C)(C)C)cc2)C(=O)C(=O)O)cc1-c1ccc(OC(F)(F)F)cc1 [Compound 211] | – | – | – |
| 78 | 95 | 5 | 15 | 64 | 98 | 8 | 40 | 73 | 67 | CC(C)(C)c1ccc(CN(C(=O)C(=O)O)c2ccc(OCc3ccccc3)c(-c3ccc(OC(F)(F)F)cc3)c2)cc1 [Compound 212] | – | – | – |
| 93 | 84 | 0 | 10 | 48 | 98 | 8 | 26 | 90 | 78 | CCN(CC)c1ccc(N(Cc2ccc(C(C)(C)C)cc2)C(=O)C(=O)O)cc1-c1ccc(OC(F)(F)F)cc1 [Compound 213] | – | – | – |
| 87 | 93 | 4 | 2 | 40 | 96 | 0 | 8 | 77 | 97 | CN(C)c1ccc(N(Cc2ccc(C(C)(C)C)cc2)C(=O)C(=O)O)cc1-c1ccc(OC(F)(F)F)cc1 [Compound 214] | – | – | – |
| 90 | 92 | 7 | 18 | 54 | 95 | 2 | 16 | 84 | 97 | Cc1cc(N(C)C)c(-c2ccc(OC(F)(F)F)cc2)cc1N(Cc1ccc(C(C)(C)C)cc1)C(=O)C(=O)O [Compound 215] | – | – | – |
| – | – | – | – | – | – | – | – | – | – | CCC(CC)Oc1ccc(-c2ccc(OC(F)(F)F)cc2)cc1N(CCCc1ccccc1)C(=O)C(=O)O [Compound 233] | 900 | 1460 | inhibition at […] ([2]; Compound Concentration 2.5 μM, Tris buffer, read-out: Inhibition Rate of PAI-1 Activity (%)): 49%; inhibition at 5 µM ([2]; Compound Concentration 5 μM, Tris buffer, read-out: Inhibition Rate of PAI-1 Activity (%)): 78%; inhibition at 10 µM ([2]; Compound Concentration 10 μM, Tris buffer, read-out: Inhibition Rate of PAI-1 Activity (%)): 93%; inhibition at 0.1 µM ([3]; Compound Concentration 0.1 μM, HEPES buffer, read-out: Inhibition Rate of PAI-1 Activity (%)): 0%; inhibition at 0.3 µM ([3]; Compound Concentration 0.3 μM, HEPES buffer, read-out: Inhibition Rate of PAI-1 Activity (%)): 9%; inhibition at 1 µM ([3]; Compound Concentration 1 μM, HEPES buffer, read-out: Inhibition Rate of PAI-1 Activity (%)): 55%; inhibition at 3 µM ([3]; Compound Concentration 3 μM, HEPES buffer, read-out: Inhibition Rate of PAI-1 Activity (%)): 97%; inhibition at 0.3 µM ([4]; compound concentration 0.3 μM, read-out: Inhibition Rate of PAI-1 Activity (%)): 4%; inhibition at 1 µM ([4]; compound concentration 1 μM, read-out: Inhibition Rate of PAI-1 Activity (%)): 20%; inhibition at 3 µM ([4]; compound concentration 3 μM, read-out: Inhibition Rate of PAI-1 Activity (%)): 93%; inhibition at 10 µM ([4]; compound concentration 10 μM, read-out: Inhibition Rate of PAI-1 Activity (%)): > 99%; inhibition at 0.3 µM ([5]; Compound Concentration 0.3 μM): 13%; inhibition at 1 µM ([5]; Compound Concentration 1 μM): 28%; inhibition at 3 µM ([5]; Compound Concentration 3 μM): 50% |
